Results from patent publication US7582629B2, “Derivatives of isothiazol-3(2H)-one 1,1-dioxides as liver X receptor modulators” (AstraZeneca AB, priority 2005, dated 2009).

Target: T1, LXRα (Homo sapiens, UniProt Q13133)
T1 construct: human LXRalpha (amino acid 205-447); made in house; host or cells: E. coli
T1 sequence (Q13133 205-447): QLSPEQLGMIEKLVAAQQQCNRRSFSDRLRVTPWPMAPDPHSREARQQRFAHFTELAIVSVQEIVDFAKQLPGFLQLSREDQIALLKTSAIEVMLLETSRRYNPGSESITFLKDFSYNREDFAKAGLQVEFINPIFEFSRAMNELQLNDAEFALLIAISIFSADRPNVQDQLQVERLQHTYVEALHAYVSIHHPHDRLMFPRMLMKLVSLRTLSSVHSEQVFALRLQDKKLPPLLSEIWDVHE
Experiment: Co-activator recruitment assay (LXR-LBD / SRC-1 peptide, time-resolved fluorescence)
Format: biochemical
Conditions: coactivator recruitment assays
Excerpt: The Ligand Binding Domain (LBD) of human LXRalpha (amino acid 205-447) and LXRbeta (amino acid 216-461) was produced by recombinant techniques in E. coli. A fragment of the human Steroid Receptor Co-Activator-1 (SRC-1) was produced as a synthetic peptide. An anti-6×His-antibody coupled with Europium (Eu^3+) was used to recognize the His-tag on the LXR-LBD and Allophycocyanin (APC) coupled to streptavidin was used to recognize the biotinylated SRC-1. Agonist binding to LXRalpha or LXRbeta enhances the affinity of LXR towards SRC-1 and thereby brings Eu^3+ and APC in close proximity. Eu^3+ is excited at 337 nm and emitts light at 620 nm. This emission, when in close proximity, excites APC to emit light at 665 nm.
Compounds (10 mM) in DMSO were diluted (⅓) in DMSO in 10 concentrations. […]
The assay mix has the following final concentrations; LXRalpha mix: 0.06 μg/mL Eu-labelled anti-6×His Ab, […] Streptavidin APC, 30 nM SRC-1 peptide and 0.9 μg/mL LXRalpha in buffer and LXRbeta mix; 0.06 μg/mL Eu-labelled anti-6×His Ab, 1.15 μg/1 mL Streptavidin APC, 90 nM SRC-1 peptide and 0.2 μg/mL LXRbeta in buffer. Time-resolved fluorescence readings were done in a Wallac Victor reader at 665 nm followed by reading at 615 nm. […]

EC50 | Structure (SMILES)
270 nM | COCCN1C(=O)C(Nc2ccc3oc(C(C)=O)cc3c2)=C(c2ccccc2)S1(=O)=O [Example 13, 4-[(2-Acetyl-1-benzofuran-5-yl)amino]-2-(2-methoxyethyl)-5-phenylisothiazol-3(2H)-one 1,1-dioxide]
75 nM | O=C1C(Nc2ccc(OC(F)F)cc2)=C(c2ccccc2)S(=O)(=O)N1Cc1ccc(OC(F)F)cc1 [Example 14, 2-[4-(Difluoromethoxy)benzyl]-4-{[4-(difluoromethoxy)phenyl]amino}-5-phenylisothiazol-3(2H)-one 1,1-dioxide]
